{"source": "paper PMC10482691", "about": "“LTP induction by structural rather than enzymatic functions of CaMKII” (Nature, 2023)", "key": {"PAK2(h)": {"target": "PAK2(h) (Homo sapiens, UniProt Q13177)", "sequence (Q13177 whole entry)": "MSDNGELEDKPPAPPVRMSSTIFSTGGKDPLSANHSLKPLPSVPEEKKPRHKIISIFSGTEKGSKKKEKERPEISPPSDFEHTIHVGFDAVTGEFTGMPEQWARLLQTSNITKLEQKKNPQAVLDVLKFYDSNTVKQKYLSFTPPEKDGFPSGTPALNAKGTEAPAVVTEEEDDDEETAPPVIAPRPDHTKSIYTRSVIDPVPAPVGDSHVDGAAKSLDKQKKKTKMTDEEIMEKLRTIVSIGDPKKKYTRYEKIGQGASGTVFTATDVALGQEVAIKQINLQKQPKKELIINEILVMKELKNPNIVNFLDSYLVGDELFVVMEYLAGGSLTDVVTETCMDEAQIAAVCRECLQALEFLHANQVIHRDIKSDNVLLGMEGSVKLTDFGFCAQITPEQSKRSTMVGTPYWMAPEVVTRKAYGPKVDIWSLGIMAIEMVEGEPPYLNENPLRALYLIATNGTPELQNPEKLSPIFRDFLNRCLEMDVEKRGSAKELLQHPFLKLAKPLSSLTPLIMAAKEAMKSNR", "assay": "Kinase selectivity panel (residual activity at 1 μM)", "type": "biochemical", "conditions": "inhibitor at 1 μM; read-out: residual kinase activity in % of maximal activity"}, "Pim-3(h)": {"target": "Pim-3(h) (Homo sapiens, UniProt Q86V86)", "assay": "Kinase selectivity panel (residual activity at 1 μM)", "type": "biochemical", "conditions": "inhibitor at 1 μM; read-out: residual kinase activity in % of maximal activity"}, "PDK1(h)": {"target": "PDK1(h) (Homo sapiens, UniProt O15530)", "sequence (O15530 whole entry)": "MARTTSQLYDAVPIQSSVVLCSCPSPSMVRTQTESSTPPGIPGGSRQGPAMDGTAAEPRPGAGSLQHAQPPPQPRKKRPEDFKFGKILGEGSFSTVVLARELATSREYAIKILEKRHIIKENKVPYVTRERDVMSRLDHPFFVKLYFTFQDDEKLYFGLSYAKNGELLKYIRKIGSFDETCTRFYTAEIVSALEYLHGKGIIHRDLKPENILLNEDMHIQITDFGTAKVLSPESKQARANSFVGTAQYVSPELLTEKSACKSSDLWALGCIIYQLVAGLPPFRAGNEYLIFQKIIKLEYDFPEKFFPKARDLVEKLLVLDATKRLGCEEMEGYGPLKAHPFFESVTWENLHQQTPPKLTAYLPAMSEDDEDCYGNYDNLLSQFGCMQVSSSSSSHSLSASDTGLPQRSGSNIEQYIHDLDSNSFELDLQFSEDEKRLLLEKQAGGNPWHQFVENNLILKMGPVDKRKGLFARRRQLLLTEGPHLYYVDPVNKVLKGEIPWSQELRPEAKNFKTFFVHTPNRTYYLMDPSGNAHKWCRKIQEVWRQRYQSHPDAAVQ", "assay": "Kinase selectivity panel (residual activity at 1 μM)", "type": "biochemical", "conditions": "inhibitor at 1 μM; read-out: residual kinase activity in % of maximal activity"}, "IGF-1R(h)": {"target": "IGF-1R(h) (Homo sapiens, UniProt P08069)", "assay": "Kinase selectivity panel (residual activity at 1 μM)", "type": "biochemical", "conditions": "inhibitor at 1 μM; read-out: residual kinase activity in % of maximal activity"}, "CDK2/cyclinE(h)": {"target": "CDK2/cyclinE(h) (Homo sapiens, UniProt P24941)", "assay": "Kinase selectivity panel (residual activity at 1 μM)", "type": "biochemical", "conditions": "inhibitor at 1 μM"}, "FAK(h)": {"target": "FAK(h) (Homo sapiens, UniProt Q05397)", "sequence (Q05397 whole entry)": "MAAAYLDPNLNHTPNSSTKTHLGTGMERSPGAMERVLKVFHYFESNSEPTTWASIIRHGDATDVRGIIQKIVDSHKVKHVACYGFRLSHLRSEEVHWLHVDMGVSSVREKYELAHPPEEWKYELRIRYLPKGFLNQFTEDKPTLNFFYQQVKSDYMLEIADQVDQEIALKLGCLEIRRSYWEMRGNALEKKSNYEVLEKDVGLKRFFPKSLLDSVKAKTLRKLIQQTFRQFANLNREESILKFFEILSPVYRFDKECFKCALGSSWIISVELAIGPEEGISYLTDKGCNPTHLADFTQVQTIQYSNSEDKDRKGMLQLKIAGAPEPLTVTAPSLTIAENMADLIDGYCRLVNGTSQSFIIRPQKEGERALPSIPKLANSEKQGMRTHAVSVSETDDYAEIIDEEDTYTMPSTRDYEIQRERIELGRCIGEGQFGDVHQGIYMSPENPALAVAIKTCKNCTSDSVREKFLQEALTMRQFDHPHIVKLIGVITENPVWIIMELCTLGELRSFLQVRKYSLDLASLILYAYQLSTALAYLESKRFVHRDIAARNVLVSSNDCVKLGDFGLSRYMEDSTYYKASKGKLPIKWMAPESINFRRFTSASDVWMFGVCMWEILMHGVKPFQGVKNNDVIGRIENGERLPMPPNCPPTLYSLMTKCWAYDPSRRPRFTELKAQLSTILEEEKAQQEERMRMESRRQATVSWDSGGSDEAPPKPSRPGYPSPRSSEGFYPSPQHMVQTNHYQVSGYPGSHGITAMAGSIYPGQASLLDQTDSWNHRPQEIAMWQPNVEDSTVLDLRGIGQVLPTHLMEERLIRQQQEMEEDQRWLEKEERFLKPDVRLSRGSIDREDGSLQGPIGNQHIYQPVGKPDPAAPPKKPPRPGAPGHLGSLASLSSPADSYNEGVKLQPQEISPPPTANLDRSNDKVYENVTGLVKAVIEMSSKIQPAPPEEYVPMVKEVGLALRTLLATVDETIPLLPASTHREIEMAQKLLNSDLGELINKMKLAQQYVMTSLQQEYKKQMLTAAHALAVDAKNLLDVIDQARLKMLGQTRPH", "assay": "Kinase selectivity panel (residual activity at 1 μM)", "type": "biochemical", "conditions": "inhibitor at 1 μM; read-out: residual kinase activity in % of maximal activity"}, "SAPK2a(h)": {"target": "SAPK2a(h) (Homo sapiens, UniProt Q16539)", "sequence (Q16539 whole entry)": "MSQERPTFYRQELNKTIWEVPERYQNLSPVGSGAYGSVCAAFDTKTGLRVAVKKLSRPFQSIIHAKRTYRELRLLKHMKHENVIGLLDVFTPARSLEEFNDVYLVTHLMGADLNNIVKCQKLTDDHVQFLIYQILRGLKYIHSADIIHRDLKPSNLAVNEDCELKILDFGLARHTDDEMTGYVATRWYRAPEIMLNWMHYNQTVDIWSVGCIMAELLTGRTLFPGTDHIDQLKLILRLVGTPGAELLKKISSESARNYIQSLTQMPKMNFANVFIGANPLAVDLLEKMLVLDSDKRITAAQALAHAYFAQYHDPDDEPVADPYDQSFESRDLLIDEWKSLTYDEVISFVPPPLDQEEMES", "assay": "Kinase selectivity panel (residual activity at 1 μM)", "type": "biochemical", "conditions": "inhibitor at 1 μM"}, "cKit(h)": {"target": "cKit(h) (Homo sapiens, UniProt P10721)", "sequence (P10721 26-976)": "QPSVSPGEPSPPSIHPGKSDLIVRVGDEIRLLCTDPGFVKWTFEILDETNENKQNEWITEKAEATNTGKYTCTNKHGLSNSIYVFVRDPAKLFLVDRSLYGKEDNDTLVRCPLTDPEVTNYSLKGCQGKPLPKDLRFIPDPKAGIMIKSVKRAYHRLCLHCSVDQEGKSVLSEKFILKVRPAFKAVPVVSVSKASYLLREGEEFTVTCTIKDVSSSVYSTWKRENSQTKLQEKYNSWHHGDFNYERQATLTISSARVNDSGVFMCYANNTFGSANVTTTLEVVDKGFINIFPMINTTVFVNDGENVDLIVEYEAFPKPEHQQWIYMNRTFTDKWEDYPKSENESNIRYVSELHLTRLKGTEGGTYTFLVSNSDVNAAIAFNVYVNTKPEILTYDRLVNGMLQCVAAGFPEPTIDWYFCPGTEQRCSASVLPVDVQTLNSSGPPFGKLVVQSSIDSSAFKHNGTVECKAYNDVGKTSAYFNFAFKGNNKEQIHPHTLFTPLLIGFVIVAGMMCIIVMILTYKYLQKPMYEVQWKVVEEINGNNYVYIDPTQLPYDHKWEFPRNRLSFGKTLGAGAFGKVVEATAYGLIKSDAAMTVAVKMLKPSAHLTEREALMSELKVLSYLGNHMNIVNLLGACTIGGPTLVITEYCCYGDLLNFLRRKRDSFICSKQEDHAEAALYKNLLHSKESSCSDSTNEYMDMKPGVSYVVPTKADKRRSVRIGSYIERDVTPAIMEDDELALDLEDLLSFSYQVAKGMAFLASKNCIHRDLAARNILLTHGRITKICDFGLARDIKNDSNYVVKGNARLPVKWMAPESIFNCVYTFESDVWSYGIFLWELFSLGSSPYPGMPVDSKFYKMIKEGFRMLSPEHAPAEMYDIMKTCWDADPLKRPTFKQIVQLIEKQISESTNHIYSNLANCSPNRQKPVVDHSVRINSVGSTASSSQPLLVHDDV", "assay": "Kinase selectivity panel (residual activity at 1 μM)", "type": "biochemical", "conditions": "inhibitor at 1 μM; read-out: residual kinase activity in % of maximal activity"}, "CDK5/p35(h)": {"target": "CDK5/p35(h) (Homo sapiens, UniProt Q00535)", "sequence (Q00535 whole entry)": "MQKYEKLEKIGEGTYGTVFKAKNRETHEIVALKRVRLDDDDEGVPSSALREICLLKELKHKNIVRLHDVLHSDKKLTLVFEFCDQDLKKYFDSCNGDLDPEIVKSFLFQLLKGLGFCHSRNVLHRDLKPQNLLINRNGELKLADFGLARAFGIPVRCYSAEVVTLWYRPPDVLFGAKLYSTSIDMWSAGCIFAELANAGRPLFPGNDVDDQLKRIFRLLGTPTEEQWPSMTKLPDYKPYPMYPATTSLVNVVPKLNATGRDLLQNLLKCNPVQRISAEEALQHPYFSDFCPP", "sequence (Q15078 whole entry partner)": "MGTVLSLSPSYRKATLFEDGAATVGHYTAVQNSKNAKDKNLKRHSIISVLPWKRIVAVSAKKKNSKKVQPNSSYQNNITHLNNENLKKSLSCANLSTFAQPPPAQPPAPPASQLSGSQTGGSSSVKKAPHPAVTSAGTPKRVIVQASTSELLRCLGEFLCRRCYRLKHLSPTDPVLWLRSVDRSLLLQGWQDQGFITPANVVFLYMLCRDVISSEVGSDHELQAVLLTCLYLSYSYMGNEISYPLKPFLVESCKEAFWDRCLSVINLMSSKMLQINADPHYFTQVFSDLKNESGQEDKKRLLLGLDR", "assay": "Kinase selectivity panel (residual activity at 1 μM)", "type": "biochemical", "conditions": "inhibitor at 1 μM; read-out: residual kinase activity in % of maximal activity"}, "[1]": {"system": "CA1 LTP in CaMKIIα KO slices (mock)", "assay": "LTP field recordings in slices of CaMKIIα KO mice injected with AAV-mScarlet (mock)", "type": "cell-based, mouse", "conditions": "for fEPSP slope (normalized to baseline): individual slices, sheet 5b", "method": "Stereotactic injections were performed on P24 CaMKIIα KO mice. Animals were anesthetized with an intraperitoneal injection of 2,2,2-Tribromoethanol (250 mg kg^−1) and then head fixed to a stereotactic frame (David Kopf Instruments). AAVs (0.2–0.5 µl) were injected into intermediate CA1 at a rate of […] using a syringe pump (World Precision Instruments). Coordinates (in millimetres) were anterior–posterior: −3.17; mediolateral: ±3.45 (relative to Bregma); and dorsoventral: −2.5 (relative to pia). To confirm specificity of the injection site following LTP recordings, slices were fixed in 4% paraformaldehyde; then, they were coverslipped and imaged on an Olympus slide scanning microscope.\nWT and mutant mouse hippocampal slices were prepared using P56–P70 mice. Isoflurane-anesthetized mice were rapidly decapitated, and the brain was dissected in an ice-cold high-sucrose solution containing 220 mM sucrose, 12 mM MgSO4, 10 mM glucose, 0.2 mM CaCl2, 0.5 mM KCl, 0.65 mM NaH2PO4, 13 mM NaHCO3 and 1.8 mM ascorbate. Transverse hippocampal slices (400 μm) were made using a tissue chopper (McIlwain) and transferred into 32 °C ACSF containing 124 mM NaCl, 3.5 mM KCl, 1.3 mM NaH2PO4, 26 mM NaHCO3, 10 mM glucose, 2 mM CaCl2, 1 mM MgSO4 and 1.8 mM ascorbate. All slices were recovered in 95% O2/5% CO2 for at least 1.5 h before experimentation.\nFor electrophysiological slice recording experiments, a glass micropipette (typical resistance of 0.4–0.8 megaohm when filled with ACSF) was used to record fEPSPs from the CA1 dendritic layer in response to stimulation of the Schaffer collaterals using a tungsten bipolar electrode. Slices were continually perfused with 30.5 °C ± 0.5 °C ACSF at a rate of 2.5 ± 0.5 ml min^−1 during recordings. Stimuli were delivered every 20 s, and three responses (1 min) were averaged for analysis. Data were analysed using WinLTP software with slope calculated as the initial rise from 10 to 60% of the response peak. Input–output curves were generated by increasing the stimulus intensity at a constant interval until a maximum response or population spike was noted to determine stimulation that elicits 50% of maximum slope. […] A stable baseline was acquired for a minimum of 20 min at 50% maximum slope before high-frequency stimulation (HFS; 2 × 100 Hz, 10 s interval) was applied. Responses were recorded for 40 or 60 min after HFS. Change in slope was calculated as a ratio of the average slope of the 20 min baseline (before HFS). Bar graphs of the percentage of fEPSP slope were calculated by averaging the last 10 min time points post-HFS and normalized to baseline."}}, "note": "Several values for one entry are separate records, joined by “and”; a condition that tells them apart may be missing. Identical values can stand only once.", "data": [{"smiles": "NCCNc1cccc(-c2ccnc3[nH]c4ccccc4c23)c1", "note": "[AS283]", "values": [{"measurement": "remaining activity at 1 µM", "setting": "PAK2(h)", "result": 76, "unit": "%"}, {"measurement": "remaining activity at 1 µM", "setting": "Pim-3(h)", "result": 97, "unit": "%"}, {"measurement": "remaining activity at 1 µM", "setting": "PDK1(h)", "result": 78, "unit": "%"}, {"measurement": "remaining activity at 1 µM", "setting": "IGF-1R(h)", "result": 110, "unit": "%"}, {"measurement": "residual kinase activity in % of maximal activity", "setting": "CDK2/cyclinE(h)", "result": 41, "unit": "%"}, {"measurement": "remaining activity at 1 µM", "setting": "FAK(h)", "result": 68, "unit": "%"}, {"measurement": "residual kinase activity in % of maximal activity", "setting": "SAPK2a(h)", "result": 95, "unit": "%"}, {"measurement": "remaining activity at 1 µM", "setting": "cKit(h)", "result": 50, "unit": "%"}, {"measurement": "remaining activity at 1 µM", "setting": "CDK5/p35(h)", "result": 33, "unit": "%"}]}, {"smiles": "CC(C)(C)n1nc(Cc2cccc3ccccc23)c2c(N)ncnc21", "note": "[NM-PP1]", "values": [{"measurement": "synaptic response 60 min following LTP induction (fEPSP slope normalized to baseline)", "setting": "[1]; AAV-mScarlet (mock), 10 μM NM-PP1", "result": "102.757% and 115.997% and 130.031% and 114.245% and 91.515% and 129.007%"}, {"measurement": "effect on residual LTP in control slices", "setting": "[1]; NM-PP1", "result": "no effect"}, {"measurement": "fEPSP slope (normalized to baseline)", "setting": "[1]; Time (min) 0", "result": "101.067 and 113.338 and 103.234 and 95.8969 and 93.1952 and 132.987"}, {"measurement": "fEPSP slope (normalized to baseline)", "setting": "[1]; Time (min) 2.33333", "result": "249.911 and 143.318 and 169.121 and 175.176 and 145.841 and 156.755"}, {"measurement": "fEPSP slope (normalized to baseline)", "setting": "[1]; Time (min) 4.33333", "result": "204.384 and 151.727 and 165.598 and 165.31 and 135.76 and 108.68"}, {"measurement": "fEPSP slope (normalized to baseline)", "setting": "[1]; Time (min) 6.33333", "result": "189.169 and 150.265 and 135.884 and 160.117 and 120.975 and 129.276"}, {"measurement": "fEPSP slope (normalized to baseline)", "setting": "[1]; Time (min) 8.33333", "result": "181.94 and 147.249 and 128.602 and 144.365 and 120.078 and 132.395"}, {"measurement": "fEPSP slope (normalized to baseline)", "setting": "[1]; Time (min) 10.3333", "result": "172.351 and 139.799 and 136.941 and 133.459 and 110.893 and 130.889"}, {"measurement": "fEPSP slope (normalized to baseline)", "setting": "[1]; Time (min) 12.3333", "result": "161.674 and 137.88 and 134.122 and 129.997 and 100.812 and 137.611"}, {"measurement": "fEPSP slope (normalized to baseline)", "setting": "[1]; Time (min) 14.3333", "result": "174.774 and 134.406 and 129.19 and 125.67 and 98.5718 and 121.048"}, {"measurement": "fEPSP slope (normalized to baseline)", "setting": "[1]; Time (min) 16.3333", "result": "159.559 and 133.63 and 131.891 and 126.189 and 89.1627 and 135.622"}, {"measurement": "fEPSP slope (normalized to baseline)", "setting": "[1]; Time (min) 18.3333", "result": "153.964 and 134.681 and 128.015 and 124.631 and 95.4355 and 108.465"}, {"measurement": "fEPSP slope (normalized to baseline)", "setting": "[1]; Time (min) 20.3333", "result": "149.095 and 132.944 and 120.851 and 126.189 and 102.828 and 98.3552"}, {"measurement": "fEPSP slope (normalized to baseline)", "setting": "[1]; Time (min) 22.3333", "result": "149.671 and 128.922 and 119.442 and 125.843 and 91.627 and 123.092"}, {"measurement": "fEPSP slope (normalized to baseline)", "setting": "[1]; Time (min) 24.3333", "result": "144.438 and 125.952 and 116.623 and 124.631 and 90.9549 and 132.503"}, {"measurement": "fEPSP slope (normalized to baseline)", "setting": "[1]; Time (min) 26.3333", "result": "142.473 and 123.484 and 117.21 and 125.843"}, {"measurement": "fEPSP slope (normalized to baseline)", "setting": "[1]; Time (min) -2", "result": "96.4978 and 115.989 and 102.999 and 98.6665 and 100.14 and 126.48"}, {"measurement": "fEPSP slope (normalized to baseline)", "setting": "[1]; Time (min) -4", "result": "101.912 and 117.543 and 106.993 and 100.051 and 103.5 and 95.9353"}, {"measurement": "fEPSP slope (normalized to baseline)", "setting": "[1]; Time (min) -6", "result": "102.969 and 117.634 and 102.06 and 101.09 and 99.2439 and 110.347"}]}]}
